In patent US11826453B2, “Hair care composition comprising piroctone olamine” (Conopco, Inc., priority 2019, dated 2023):

Test: Octopirox degradation under cool white light (LCMS / UPLC-UV)
Type: physicochemical
Details: 24 hours
Protocol: The cool white light (CWL) irradiation was carried out in an X-Rite (Macbeth) Spectra Light III chamber. CWL mode was chosen which provides stable irradiation mimicking the indoor light. The intensity of light was fixed which estimated at 6 μw/cm2 for UVA and 1.5 μw/cm^2 for UVB. The chamber temperature was equal to the room temperature (20±2° C.). The sample was placed in a line close to the center of the chamber. After 24 hours, the sample was analyzed by LCMS (Water UPLC coupled with Quatro Micro MS), by quantitatively measured using UPLC-UV analysis following DPS derivatization.
The separation was performed by a UPLC BEH C18 column and the mobile phase was acetonitrile/water (60/40, 0.1% formic acid) in isocratic elution. Electrospray ionization in positive mode was applied for MS scan.

SMILES: Cc1cc(CC(C)CC(C)(C)C)n(O)c(=O)c1.NCCO (centres unmarked) [Octopirox®, Piroctone olamine]
- quantity of Octopirox® after cool white light (cool white light (indoor light; 6 μw/cm2 UVA, 1.5 μw/cm^2 UVB), 20±2° C.): reduced
- compound of formula 1 in the degradation product (cool white light, LCMS): no compound of formula 1 can be detected
